{
  "source": "patent US20250049737A1",
  "about": "“Lauflumide and derivatives thereof for treating chronic fatigue syndrome and myalgic encephalomyelitis/chronic fatigue syndrome (ME/CFS)” (NLS Pharmaceutics AG, priority 2021, published 2025)",
  "key": {"[1]": {"test": "Body weight during fatigue procedure and test period", "type": "in vivo, Rats, Sprague-Dawley", "settings": "32-128 mg/kg p.o.; test period", "description": "FIG. 26 Body weight (in g; mean, SEM) before the beginning and during the fatigue procedure (F-D1-7) and during the test period (T-D1-D3+24 h).\nAnimals were weighed every day.\n(§1) After the end of the Fatigue procedure, animals were divided into 10 groups which received before tests (total: 3 administrations) a per-os (p.o., oral gavage) administration of: • Sham (no fatigue) group (N=12): Vehicle. • Control group (N=11): Vehicle. • Modafinil 32 (N=10): modafinil (32 mg/kg). • Modafinil 64 (N=10): modafinil (64 mg/kg). • Modafinil 128 (N=5): modafinil (128 mg/kg). • NLS-4 16 (N=5): NLS-4 (16 mg/kg). • NLS-4 32 (N=10): NLS-4 (32 mg/kg). • NLS-4 64 (N=10): NLS-4 (64 mg/kg). • NLS-4 128 (N=10): NLS-4 (128 mg/kg). • NLS-4 256 (N=5): NLS-4 (256 mg/kg)."}, "[2]": {"system": "Rat model of severe fatigue", "test": "Rat model of severe fatigue (sleep deprivation): recording of circadian locomotor activity", "type": "in vivo, Rats, Sprague-Dawley", "settings": "for Difference of distance travelled between the dark phase and the light phase / Distance travelled during the 12-h dark phase / Distance travelled during the 12-h light phase / Total distance travelled during the full 24-h period: days 1, 2 and 3", "description": "In the following example, Lauflumide is also called NLS-4.\nAnimals are individually housed in transparent polycarbonate cages (1354G Eurostandard Type IV cage, Tecniplast, Italy, 595×380×200 mm, floor area=1820 cm^2) filled with water (23±1° C.) to a height of 1.5 cm. A platform (5 cm height, 6.5 cm diameter) was located at the center of the cage. Animals can stay on the platform in order to stay dry but falls from it when it falls in deep sleep. […] During this period, animals were placed in a modified light/dark cycle with variable durations of the light and dark periods which change every day. This procedure is intended to disrupt the circadian rhythm.\nThe Sham group was housed in normal condition for the same period under a 12/12 h light/dark cycle.\nAfter the end of the fatigue period, animals were placed in transparent polycarbonate cages (Type E, Iffa Credo, France, 450×300×200 mm, floor area=1032 cm^2), under a 12 h/12 h cycle. Cages were covered with a stainless steel grid in which food and a bottle are placed. A stainless steel removable divider separated food and water. The cages were placed in infrared photobeam detection systems (Acti-track, LSI Leticca, Panlab) allowing to record continuously the distance travelled in the cage. Locomotor activity was recorded continuously for 3 days. The test started at the beginning of the dark phase of the light/dark cycle.\nSeventy-six animals were subjected to the fatigue procedure and to the tests as described above. Twelve animals (Sham group) were housed in standard condition.\nas §1\nRead-out: distance travelled during 24-h periods, 12-h dark and light periods and during 2-h periods.\nData are expressed as mean and standard error of mean (SEM).\nStatistical analyses: Student's t test, repeated measure ANOVA.\nA difference is considered statistically significant at p≤0.05."}, "[3]": {"system": "cocaine conditioned place preference", "settings": "128 mg/kg; rats; cited from earlier work"}, "[4]": {"settings": "32 mg/kg p.o., vs. Control (fatigue) group"}, "[5]": {"settings": "32 mg/kg p.o., vs. Sham (no fatigue) group"}, "[6]": {"settings": "64 mg/kg p.o., vs. Control (fatigue) group"}, "[7]": {"settings": "64 mg/kg p.o., vs. Sham (no fatigue) group"}, "[8]": {"settings": "128 mg/kg p.o., vs. Control (fatigue) group"}, "[9]": {"settings": "128 mg/kg p.o., vs. Sham (no fatigue) group"}},
  "note": "“Also recorded” adds a separate entry of the source.",
  "data": [
    {"smiles": "NC(=O)C[S+]([O-])C(c1ccccc1)c1ccccc1", "note": "(stereo not drawn) [Modafinil, reference compound]", "values": [
      {"measurement": "Weight loss induced by the fatigue procedure", "setting": "[1]", "result": "not modified"},
      {"measurement": "Motor activity during the first 2-h periods following the dosing", "setting": "[2]; 32 mg/kg p.o.", "result": "increased"},
      {"measurement": "Activity during the following 22 h", "setting": "[2]; 32 mg/kg p.o., after the first 2-h period following dosing", "result": "few or no modification"},
      {"measurement": "Difference of distance travelled between the dark phase and the light phase", "setting": "[2]; [4]", "result": "not significantly different"},
      {"measurement": "Distance travelled during the 12-h dark phase", "setting": "[2]; [4]", "result": "not significantly different"},
      {"measurement": "Distance travelled during the 12-h light phase", "setting": "[2]; [4]", "result": "not significantly different"},
      {"measurement": "Total distance travelled during the full 24-h period", "setting": "[2]; [4]", "result": "not significantly different"},
      {"measurement": "Difference of distance travelled between the dark phase and the light phase", "setting": "[2]; [5]", "result": "not lower than the Sham group on days 1 and 2 only"},
      {"measurement": "Distance travelled during the 12-h dark phase", "setting": "[2]; [5]", "result": "lower than the Sham group during the dark phase on days 1 and 2 only"},
      {"measurement": "Distance travelled during the 12-h light phase", "setting": "[2]; [5]", "result": "higher than the Sham group during the light phase on day 1 only"},
      {"measurement": "Total distance travelled during the full 24-h period", "setting": "[2]; [5]", "result": "not significantly different"},
      {"measurement": "Motor activity during the first 2-h periods following the dosing", "setting": "[2]; 64 mg/kg p.o.", "result": "increased"},
      {"measurement": "Difference of distance travelled between the dark phase and the light phase", "setting": "[2]; [6]", "result": "higher; also recorded: increased"},
      {"measurement": "Distance travelled during the 12-h dark phase", "setting": "[2]; [6]", "result": "higher"},
      {"measurement": "Distance travelled during the 12-h light phase", "setting": "[2]; [6]", "result": "not significantly different"},
      {"measurement": "Total distance travelled during the full 24-h period", "setting": "[2]; [6]", "result": "higher"},
      {"measurement": "Difference of distance travelled between the dark phase and the light phase", "setting": "[2]; [7]", "result": "not significantly different"},
      {"measurement": "Distance travelled during the 12-h dark phase", "setting": "[2]; [7]", "result": "not significantly different"},
      {"measurement": "Distance travelled during the 12-h light phase", "setting": "[2]; [7]", "result": "not significantly different"},
      {"measurement": "Total distance travelled during the full 24-h period", "setting": "[2]; [7]", "result": "not significantly different"},
      {"measurement": "Difference of distance travelled between the dark phase and the light phase", "setting": "[2]; [8]", "result": "higher for the Modafinil 128 group than for the Control group on days 1 and 2 only; also recorded: increased"},
      {"measurement": "Distance travelled during the 12-h dark phase", "setting": "[2]; [8]", "result": "higher for the Modafinil 128 group than for the Control group during the dark period on days 1 and 2 only"},
      {"measurement": "Distance travelled during the 12-h light phase", "setting": "[2]; [8]", "result": "not significantly different"},
      {"measurement": "Total distance travelled during the full 24-h period", "setting": "[2]; [8]", "result": "higher for the Modafinil 128 group than for the Control group on day 1 only"},
      {"measurement": "Distance travelled during the 12-h dark phase", "setting": "[2]; [9]", "result": "increase the distance travelled in comparison with the Sham group during the dark phase on day 1"},
      {"measurement": "Total distance travelled during the full 24-h period", "setting": "[2]; [9]", "result": "increase the distance travelled in comparison with the Sham group on day 1"},
      {"measurement": "Cocaine conditioned place preference following extinction", "setting": "[3]", "result": "strongly reinstated"}
    ]}
  ]
}
